{"source": "patent US11092602B2", "about": "“Methods and compositions relating to proteasome inhibitor resistance” (Whitehead Institute for Biomedical Research, priority 2015, dated 2021)", "key": {"HepG2 cells": {"test_system": "HepG2 cells", "test": "Cell viability assay (resazurin) in HepG2 cells expressing proteasome subunit shRNAs", "type": "cell-based, human", "from_the_text": "Next, we asked if a simple reduction in the expression of 19S subunits could protect against the toxicity of proteasome inhibitors. We assembled a panel of shRNA-expressing lentiviruses targeting seventeen 19S subunits and three 20S subunits (PSMB5, PSMB7 and PSMA3). Each gene was targeted separately using four different shRNAs (FIG. 2, Table S2) and we averaged the effects on viability from these four hairpins.\nFor the analysis of multiple proteasome subunit knockdown 80 shRNA targeting 20 proteasome subunits (4 different shRNAs) and 13 control shRNAs (Table S2) in pLKO lentiviral vectors from the RNAi consortium shRNA library were utilized. Cells were plated in 96 wells with the volume of 100 μL media at the concentration of 2500 cells/well. 24 hours after plating media was discarded and 50 μl with 7.5-10 μg/μ1 of polybrene and 7 μl of purified virus was added. After incubation for 24 hours the media was discarded and 200 μl of fresh media with 1 μg/ml puromycin was added. Bortezomib was added where specified. pLKO lentiviral vectors from the RNAi consortium shRNA library targeting the PSMC5 and PSMD2 (Table 2) were further used to create HepG2 and T47D stably overexpressing these shRNAs by selection with puromycin 1 μg/ml for one week.\nRelative cell growth and survival were measured in 96-well microplate format in the shRNA experiments and in 384 well format in the drug toxicity assays, by using the fluorescent detection of resazurin dye reduction as an endpoint (544 nm excitation and 590 nm emission). 2,500 cells in 96 wells format or 1,000 cells in 384 well format were plated 24 hours before compound exposure (for 72 hours or indicated time). Each analysis was performed at least with three replicas."}, "β5-subunit": {"molecular_target": "β5-subunit (Homo sapiens, UniProt P28074)", "conditions": "cited from earlier work"}, "[1]": {"test_system": "stress-response transcripts", "test": "RNA-seq gene expression profiling of PSMD2 knockdown and control (shLacZ) cells", "type": "cell-based, human", "conditions": "control cells; 12 nM bortezomib for 24 hours", "experimental": "Sequence data confirmed that PSMD2 mRNA levels were reduced by ˜50% in both lines. We examined basal gene expression and the effects of bortezomib treatment on these cells, comparing them to cells carrying a control lacZ shRNA construct.\nRNA was extracted from triplicate samples and RNA libraries were prepared for sequencing by NEBNext Ultra RNA Library Prep Kit for Illumina (New England BioLabs, Ipswich, Mass.), including the removal of large and small RNA, synthesis of cDNA, and construction of cDNA libraries. Libraries were barcoded using NEBNext Multiplex Oligos for Illumina (NEB). Libraries were sequenced using Illumina HiSeq 2500, with paired-end 100 bp reads. Paired-end reads were aligned to UCSC human transcriptome 19 (hg19) using TopHat (Bowtie v2.0.9). Alignment quality and read distribute was assessed via SAMtools (v0.1.19) (Li et al., 2009). Transcript assembly was conducted using cufflinks (v2.2.1). […] RNA sequencing data have been deposited in the NCBI Sequence Read Archive under accession number: PRJNA281613.\nGenes differentially expressed upon PSMD2 knockdown in either the presence or absence of bortezomib treatment were determined as follows (FIG. 3E): For each gene in the matrix described above, the values were normalized to the average expression in the LacZ control cells. […]"}, "20S proteasome": {"molecular_target": "20S proteasome (Homo sapiens, UniProt P28074)", "test": "Native gel analysis of proteasomal complexes with Suc-LLVY-AMC substrate overlay", "type": "biochemical", "conditions": "12 nM bortezomib for 24 hours", "from_the_text": "We first separated 20S and 26S proteasomes on native gels and examined effects on the relative levels of 26S and 20S proteasome complexes. In cells with reduced levels of either PSMC5 or PSMD2, 26S proteasome complexes were reduced and 20S proteasome complexes were increased (FIGS. 2E and 2F). These changes persisted in the presence of bortezomib (FIGS. 2E and 2F). Next, we assayed their activity with a fluorescently labeled substrate.\nProteasomal samples were loaded on a nondenaturing 4% polyacrylamide gel using the protocol described previously (Tsvetkov et al., 2014). Gels were either overlaid with Suc-LLVY-AMC (50 μM) for assessment of proteasomal activity or transferred to nitrocellulose membranes where immunoblotting specific for proteasomal subunits was conducted. Proteasomal activity was assessed by measuring the hydrolysis of Suc-LLVY-AMC by substrate overlay assays in native polyacrylamide gels with 50 mM Tris-HCl, pH 7.8, 5 mM MgCl2, 1 mM DTT, 2 mM ATP, 50 μM Suc-LLVY-AMC peptide, and incubating the gels at 37° C. for 30-60 min. Activity was visualized by transilluminated by a UV light and photographed with BIORAD Chemidoc imaging system."}, "T47D cells": {"test_system": "T47D cells", "test": "Selleck anti-cancer compound library screen, PSMD2 KD versus control T47D cells (resazurin)", "type": "cell-based, human", "conditions": "4 concentrations, 72 hours", "experimental": "After 48 hours the cells were collected, counted, and plated at 1000 cells/well in 384 well plates in duplicates for each cell line. Compounds from the Selleck Chemicals anti-cancer compound library β49 drugs in 4 concentrations; […]) were pinned the next day and viability was measured after 72 hours by the reduction of Resazurin (Ex=530 nm, Em=590 nm).\nThe effect of each drug on viability of cells was calculated by averaging the duplicate experiments. The data is plotted in FIG. 16 as the log2 of the ratio of viability of PSMD2 KD versus control cells (log2 (shPSMD2/Control))."}, "[2]": {"test_system": "protein degradation and protein synthesis", "test": "Translation and degradation assays (3H-phenylalanine)", "type": "cell-based, human", "conditions": "10 nM bortezomib", "experimental": "Next we examined the impact of reducing PSMD2 levels on protein degradation and protein synthesis. Cells were labeled with tritiated-phenylalanine for 24 hrs. We then separately measured the rates at which labeled proteins were degraded through the proteasome and through the lysosome.\nTo measure rates of protein synthesis, cells were pulse labeled with tritiated-phenylalanine for 1 hr.\nFor measuring overall rate of synthesis, cells were pretreated with 10 nM Bortezomib for 20 hours, then incorporation of ^3H-phenylalanine was measured for 1 h. The rate of synthesis was described as counts incorporated into cell proteins per hour and per μg of total cell proteins. When working with T47D cells, knockdown of PSMD2 was induced for 3 days with doxycycline before bortezomib treatment. For measuring overall rates of protein degradation, pulse-labeling with ^3H-phenylalanine for 24 hours was done before the bortezomib treatment as previously described (Zhao et al., 2007)."}, "[3]": {"conditions": "cells with transiently reduced PSMD2, 20 hours"}}, "data": [{"smiles": "CC(C)C[C@H](NC(=O)[C@H](Cc1ccccc1)NC(=O)c1cnccn1)B(O)O", "note": "[bortezomib]", "values": [{"measurement": "proliferation of lines stably expressing shRNA targeting PSMC5 or PSMD2", "setting": "HepG2 cells; HepG2, 12 nM bortezomib", "value": "continued proliferating"}, {"measurement": "concentration of bortezomib that completely inhibited the proliferation of control cells", "setting": "HepG2 cells; HepG2 control cells", "value": 12, "unit": "nM"}, {"measurement": "EC50 values increased versus parental line", "setting": "HepG2 cells; HepG2 lines with shRNA-driven modest reduction in PSMD2, 4 days", "value": "three to six"}, {"measurement": "potency of inhibition of the β5-subunit", "setting": "β5-subunit", "value": "low nanomolar"}, {"measurement": "transcriptional response", "setting": "[1]", "value": "sharp increase in stress-response transcripts"}, {"measurement": "20S proteasome activity", "setting": "20S proteasome; cells with reduced PSMC5 or PSMD2", "value": "maintained a significant level of 20S proteasome activity"}, {"measurement": "20S proteasome function", "setting": "20S proteasome; control cells", "value": "nearly complete inactivation of 20S proteasome function"}, {"measurement": "selective effect on viability, PSMD2 KD versus control cells (log2 (shPSMD2/Control))", "setting": "T47D cells", "value": "selectively reduce viability of control cells versus PSMD2 KD cells"}, {"measurement": "rates of proteolysis by the lysosome", "setting": "[2]; 20-hour treatment", "value": "remained unchanged"}, {"measurement": "inhibition of proteasome degradation", "setting": "[2]; [3]", "value": "strongly counteracted"}, {"measurement": "suppression of protein synthesis", "setting": "[2]; [3]", "value": "strongly counteracted"}, {"measurement": "rate of protein degradation", "setting": "[2]; control cells, 20-hour treatment", "value": "sharply decreased"}, {"measurement": "rate of protein synthesis", "setting": "[2]; control cells, 20 hours", "value": "sharply decreased"}]}]}
